Results taken from patent US11130748B2, “Compounds” (MISSION THERAPEUTICS LIMITED, priority 2015, dated 2021).

molecular target: USP30 (Homo sapiens (Human), UniProt Q70CQ3); test: USP30 biochemical IC50 assay; conditions: fluorescence polarisation, TAMRA labelled peptide linked to ubiquitin; 30 min pre-incubation, 2 hr read; read-out: IC50 range
Procedure: USP30 Biochemical IC50 Assay
Dilution plates were prepared at 21 times the final concentration (2100 μM for a final concentration of 100 μM) in 50% DMSO in a 96-well polypropylene V-bottom plate (Greiner #651201). A typical 8-point dilution series to be 100, 30, 10, 3, 1, 0.3, 0.1, 0.03 μM final. Reactions were performed in duplicate in black 384 well plates (small volume, Greiner 784076) in a final reaction volume of 21 μl. Either 1 μl of 50% DMSO or diluted compound was added to the plate. USP30 was diluted in reaction buffer (40 mM Tris, pH 7.5, 0.005% Tween 20, 0.5 mg/ml BSA, 5 mM beta-mercaptoethanol) to the equivalent of 0.05 μl/well and 10 μl of diluted USP30 was added to the compound. Enzyme and compound were incubated for 30 min at room temp. Reactions were initiated by the addition of 50 nM of TAMRA labelled peptide linked to ubiquitin via an iso-peptide bond as fluorescence polarisation substrate. Reactions were read immediately after addition of substrate and following a 2 hr incubation at room temperature. Readings were performed on a Pherastar Plus (BMG Labtech). λ Excitation 540 nm; λ Emission 590 nm.

Sequence of USP30 (Q70CQ3 57-517): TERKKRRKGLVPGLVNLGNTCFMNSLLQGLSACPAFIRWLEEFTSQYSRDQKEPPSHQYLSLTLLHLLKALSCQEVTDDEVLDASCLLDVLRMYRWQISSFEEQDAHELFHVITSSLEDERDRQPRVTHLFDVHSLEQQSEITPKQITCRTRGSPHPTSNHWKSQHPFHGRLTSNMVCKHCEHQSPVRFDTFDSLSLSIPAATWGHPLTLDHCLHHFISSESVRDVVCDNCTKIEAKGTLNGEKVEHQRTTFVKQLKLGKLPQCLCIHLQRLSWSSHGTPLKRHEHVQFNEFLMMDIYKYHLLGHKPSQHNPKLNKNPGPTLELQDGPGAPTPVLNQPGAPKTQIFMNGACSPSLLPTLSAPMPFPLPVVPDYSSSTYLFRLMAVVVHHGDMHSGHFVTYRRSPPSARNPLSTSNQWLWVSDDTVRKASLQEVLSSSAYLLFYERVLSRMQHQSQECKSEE

Compared with `N#CN1CCC(CNc2nc3ccc(F)cc3s2)C1` (centres unmarked) [Example 2, 3-(((6-Fluorobenzo[d]thiazol-2-yl)amino)methyl)pyrrolidine-1-carbonitrile], `N#CN1CCC(CNc2nc3ccc(-c4cn[nH]c4)cc3s2)C1` (centres unmarked) [Example 11, 3-(((6-(1H-Pyrazol-4-yl)benzo[d]thiazol-2-yl)amino)methyl)pyrrolidine-1-carbonitrile] is lower in IC50: 1000 to 10000 nM for the first, 100 to 1000 nM for the second. The second is the more potent here.

First: Cc1nn(C)cc1-c1cccc(NCC2CCN(C#N)C2)c1 (centres unmarked) [Example 13, 3-(((3-(1,3-dimethyl-1H-pyrazol-4-yl)phenyl)amino)methyl)pyrrolidine-1-carbonitrile]
Second: N#CN1CC[C@@H](CNc2ncc(-c3ccccc3)s2)C1 [Example 10, (S)-3-(((5-Phenylthiazol-2-yl)amino)methyl)pyrrolidine-1-carbonitrile]
The IC50 of the first is higher: 1000 to 10000 nM for the first, 100 to 1000 nM for the second.

First: N#CN1C[C@H]2CN(c3ncc(-c4ccccc4)s3)C(=O)[C@H]2C1 [Example 54, (3aR,6aS)-4-Oxo-5-(5-phenylthiazol-2-yl)hexahydropyrrolo[3,4-c]pyrrole-2(1H)-carbonitrile]
Second: N#CN1CC[C@H](CNc2ncc(-c3ccccc3)s2)C1 [Example 9, (R)-3-(((5-Phenylthiazol-2-yl)amino)methyl)pyrrolidine-1-carbonitrile]
The IC50 of the first is higher: 1000 to 10000 nM for the first, less than 100 nM for the second. The second is the more potent here.

First: CC(Nc1nc2ccc(C#N)cc2s1)C1CCN(C#N)C1 (centres unmarked) [Example 53, 2-((1-(1-Cyanopyrrolidin-3-yl)ethyl)amino)benzo[d]thiazole-6-carbonitrile]
Second: CC(Nc1nc2ccc(-c3cn[nH]c3)cc2s1)C1CCN(C#N)C1 (centres unmarked) [Example 49, 3-(1-((6-(1H-Pyrazol-4-yl)benzo[d]thiazol-2-yl)amino)ethyl)pyrrolidine-1-carbonitrile]
The IC50 of the first is higher: 1000 to 10000 nM for the first, 100 to 1000 nM for the second.

`N#Cc1ccc2cnc(NCC3CCN(C#N)C3)cc2c1` (centres unmarked) [Example 16, 3-(((1-Cyano-pyrrolidin-3-yl)methyl)amino) isoquinoline-6-carbonitrile] and `CNC(=O)c1ccc2cnc(NCC3CCN(C#N)C3)cc2c1` (centres unmarked) [Example 17, 3-(((1-Cyano-pyrrolidin-3-yl)methyl)amino)-N-methylisoquinoline-6-carboxamide] fall in the same range of IC50: 1000 to 10000 nM for the first, 1000 to 10000 nM for the second.

`N#CN1CCC(CNC(=O)c2ccc(S(=O)(=O)Nc3ccccc3)cc2)C1` (centres unmarked) [Example 30, N-((1-Cyanopyrrolidin-3-yl)methyl)-4-(N-phenylsulfamoyl)benzamide] and `N#CN1CCC(CNC(=O)c2ccc(-c3ccncc3)cc2)C1` (centres unmarked) [Example 24, N-((1-Cyanopyrrolidin-3-yl)methyl)-4-(pyridin-4-yl)benzamide] fall in the same range of IC50: 100 to 1000 nM for the first, 100 to 1000 nM for the second.

Compared with `N#CN1CC[C@H](CNC(=O)c2cn3ccc(C4CC4)cc3n2)C1` [Example 77, (R)—N-((1-Cyanopyrrolidin-3-yl)methyl)-7-cyclopropylimidazo[1,2-a]pyridine-2-carboxamide], `Cn1cc(-c2ccc3nc(C(=O)NCC4CCN(C#N)C4)cn3c2)cn1` (centres unmarked) [Example 39, N-((1-Cyanopyrrolidin-3-yl)methyl)-6-(1-methyl-1H-pyrazol-4-yl)imidazo[1,2-a]pyridine-2-carboxamide] is higher in IC50: 100 to 1000 nM for the first, 1000 to 10000 nM for the second. The first is the more potent here.

First: N#CN1CCC(CNC(=O)Nc2cccc(Cc3ccccc3)c2)C1 (centres unmarked) [Example 43, 1-(3-Benzylphenyl)-3-((1-cyanopyrrolidin-3-yl)methyl)urea]
Second: Cc1cc(C(=O)NCC2CCN(C#N)C2)nn1Cc1ccccc1 (centres unmarked) [Example 40, 1-Benzyl-N-((1-cyanopyrrolidin-3-yl)methyl)-5-methyl-1H-pyrazole-3-carboxamide]
The IC50 of the first is lower: 100 to 1000 nM for the first, 1000 to 10000 nM for the second.

Compared with `N#CN1CCC(CNc2cc(-c3ccccc3)ccn2)C1` (centres unmarked) [Example 5, 3-(((4-Phenylpyridin-2-yl)amino)methyl)pyrrolidine-1-carbonitrile], `N#CN1CCC(CNc2ccc(-c3ccccc3)cn2)C1` (centres unmarked) [Example 6, 3-(((5-Phenylpyridin-2-yl)amino)methyl)pyrrolidine-1-carbonitrile] is higher in IC50: 100 to 1000 nM for the first, 1000 to 10000 nM for the second.

`CN(CC1CCN(C#N)C1)S(=O)(=O)c1ccc(Oc2ccc(C(F)(F)F)cn2)cc1` (centres unmarked) [Example 47, N-((1-Cyanopyrrolidin-3-yl)methyl)-N-methyl-4-((5-(trifluoromethyl)pyridin-2-yl)oxy)benzenesulfonamide] and `N#CN1CC[C@H](CNC(=O)c2ccc(-c3ccccc3)cn2)C1` [Example 60] fall in the same range of IC50: 100 to 1000 nM for the first, 100 to 1000 nM for the second.

First: N#CN1CC[C@H](CNC(=O)c2cc(-c3cccc(Cl)c3)no2)C1 [Example 55, (R)-3-(3-Chlorophenyl)-N-((1-cyanopyrrolidin-3-yl)methyl)isoxazole-5-carboxamide]
Second: N#CN1CC[C@H](CNC(=O)c2cc(-c3ccccc3)ccn2)C1 [Example 59]
The IC50 of the first is lower: less than 100 nM for the first, 100 to 1000 nM for the second.

First: N#Cc1cccc(-n2cnc(C(=O)NC[C@H]3CCN(C#N)C3)c2)c1 [Example 71, (R)-1-(3-Cyanophenyl)-N-((1-cyanopyrrolidin-3-yl)methyl)-1H-imidazole-4-carboxamide]
Second: N#CN1CC[C@H](CNC(=O)c2cn3cc(-c4cn[nH]c4)ccc3n2)C1 [Example 75, (R)—N-((1-Cyanopyrrolidin-3-yl)methyl)-6-(H-pyrazol-4-yl)imidazo[1,2-a]pyridine-2-carboxamide]
The IC50 of the first is lower: less than 100 nM for the first, 1000 to 10000 nM for the second. The first is the more potent here.

`N#CC(Nc1nc2ccccc2s1)C1CCN(C#N)C1` (centres unmarked) [Example 52, 3-((Benzo[d]thiazol-2-ylamino)(cyano)methyl)pyrrolidine-1-carbonitrile] and `Cc1oncc1-c1ccc2nc(NC(C)C3CCN(C#N)C3)sc2c1` (centres unmarked) [Example 48, 3-(1-((6-(5-Methylisoxazol-4-yl)benzo[d]thiazol-2-yl)amino)ethyl)pyrrolidine-1-carbonitrile] fall in the same range of IC50: 100 to 1000 nM for the first, 100 to 1000 nM for the second.

`N#CN1CCC(CNc2ccc3ccccc3n2)C1` (centres unmarked) [Example 1, 3-((Quinolin-2-ylamino)methyl)pyrrolidine-1-carbonitrile] and `N#CN1CCC(CNc2cccc(-c3ccccc3)n2)C1` (centres unmarked) [Example 7, 3-(((6-Phenylpyridin-2-yl)amino)methyl)pyrrolidine-1-carbonitrile] fall in the same range of IC50: 1000 to 10000 nM for the first, 1000 to 10000 nM for the second.

Compared with `N#CN1CC[C@@H](CNC(=O)c2ccc3c(c2)NC(=O)CO3)C1` [Example 34, (S)—N-((1-Cyanopyrrolidin-3-yl)methyl)-3-oxo-3,4-dihydro-2H-benzo[b][1,4]oxazine-6-carboxamide], `CN1C(=O)COc2ccc(C(=O)NCC3CCN(C#N)C3)cc21` (centres unmarked) [Example 23, N-((1-Cyanopyrrolidin-3-yl)methyl)-4-methyl-3-oxo-3,4-dihydro-2H-benzo[b][1,4]oxazine-6-carboxamide] is lower in IC50: 1000 to 10000 nM for the first, 100 to 1000 nM for the second.

`CC(Nc1cc2cc(C#N)ccc2cn1)C1CCN(C#N)C1` (centres unmarked) [Example 51, 3-((1-(1-Cyanopyrrolidin-3-yl)ethyl)amino)isoquinoline-6-carbonitrile] and `N#CN1CCC(CNc2nccc3ccccc23)C1` (centres unmarked) [Example 3, 3-((Isoquinolin-1-ylamino)methyl)pyrrolidine-1-carbonitrile] fall in the same range of IC50: 1000 to 10000 nM for the first, 1000 to 10000 nM for the second.

`N#CN1CC[C@H](CNC(=O)c2cn3cc(-c4ccn[nH]4)ccc3n2)C1` [Example 76] and `N#CN1CCC(CNc2nccc(-c3ccccc3)n2)C1` (centres unmarked) [Example 8, 3-(((4-Phenylpyrimidin-2-yl)amino)methyl)pyrrolidine-1-carbonitrile] fall in the same range of IC50: 1000 to 10000 nM for the first, 1000 to 10000 nM for the second.

`COc1ccc(/C=C/C(=O)NCC2CCN(C#N)C2)c(F)c1` (centres unmarked) [Example 32, (E)-N-((1-Cyanopyrrolidin-3-yl)methyl)-3-(2-fluoro-4-methoxyphenyl)acrylamide] showed an IC50 of 100 to 1000 nM.
